We go through seven compounds from patent US20250154288A1, “CYTOTOXICITY TARGETING CHIMERAS FOR C-C CHEMOKINE RECEPTOR 2-EXPRESSING CELLS” (GLAXOSMITHKLINE INTELLECTUAL PROPERTY DEVELOPMENT LIMITED, priority 2022, published 2025).

The subject of series [1] is CCR2 expressing cells (CD11b+Ly6c+ Hi) in peripheral blood. The series is described as follows: In Vivo Depletion Assay (flow cytometry of peripheral blood). Further details: species or system Human CCR2 (hCCR2) knock-in mice. To be noted: hCCR2 knock-in mice; IV 0.1 mpk compound + 10 mpk anti-cotinine antibody (mouse IgG2a Fc); peripheral blood at 48 hr. As for the experimental part: (§1) Human CCR2 (hCCR2) knock-in mice (057 background) were dosed intravenously with a PBS solution containing a compound of Formula (I) to measure depletion of CCR2 expressing cells in peripheral blood. Peripheral blood from IV dosed mice was also analyzed to determine PK properties of the ARM compounds of Formula (I).
Stock solution preparation: Stock solutions of compounds of Formula (I) were prepared at 20 mg/mL and 100 mg/mL in DMSO for PK/PD and dose tolerability studies respectively. Stock solutions were stored at −20° C. until further usage.
Formulations preparation: On the day of experiment, the stock solution of the compound of Formula (I) was removed from storage at −20° C. and thawed at room temperature. Anti-cotinine antibody having a heavy chain sequence of SEQ ID NO: 13 and a light chain sequence of SEQ ID NO: 14 (rabbit variable region sequence with mouse IgG2a Fc domain), if required was removed from storage at −80° C. and thawed at room temperature. Antibody vials were immediately transferred into wet ice after thawing. Compounds of Formula (I) were further diluted in DMSO as per experimental requirements.
Formulation composition: The formulation composition was Saline: DMSO: PBS. Saline was added based on the quantity required and then stock solution of the compound of Formula (I) prepared in DMSO, followed by addition of antibody in PBS. Formulations were incubated at room temperature for 30 minutes before administration to the mouse. DMSO was used at 1 to 2% (v/v) in the final formulation.
(§2) Administration to Animal: Solution formulation of antibody and compound of Formula (I) was injected (bolus injection) to the restrained mouse in the right/left lateral tail vein. Animals were dosed with 0.1 milligram per kilogram (mpk) of the compound of Formula (I) and 10 mpk of the anti-cotinine antibody.
(§3) Terminal bleeding at end of experiment (48 hr): Approximately 250 μL of blood in K2EDTA tube and approximately 250 μL of blood in SST (serum separation tube) was collected from each mouse through retro-orbital bleeding under deep isoflurane anesthesia. After bleeding, each mouse was sacrificed by cervical dislocation. The blood distribution at termination was determined as follows: • For PK: 50 μL of K2EDTA blood was transferred to another tube for PK • Flow cytometry: Remaining blood (˜200 μL) was used for flow cytometry analysis. • For serum collection: serum separator tubes (BD) were centrifuged at 4° C., 5000 rpm for 15 minutes. Approximately 100 μL serum was separated and stored at −80° C. for further usage. • Blood drug concentration: Samples collected at the various timepoints (0.25 hr, 2 hr, 24 and 48 hr) were analyzed to determine blood drug concentration.
CCR2 depletion in peripheral blood was determined by flow cytometry. Briefly, peripheral blood was collected from all animals at the end of study termination and processed. Blood samples were lysed using 1×RBC Lysis buffer and the resulting cell pellet was washed twice in FACS buffer (HBSS containing 5% FBS). Cells were subjected to Fc blocking using mouse Fc block from Biolegend (Trustain, anti-mouse CD16/32, Cat: 101319) to block non-specific binding followed by surface staining for immune markers (CD45, CD3, CD11b, Ly6C, human CCR2). Surface staining was done for 30 minutes in ice and cells were washed twice to remove unbound antibodies. Cells were stained with 7AAD to determine viability and acquired on BD FACSVerse flow cytometer. Appropriate FMO controls and single-color controls were included in the experiment for gating and compensation respectively.
Percent depletion of CD11b+Ly6c+ Hi cells and CCR2 expression for the different treatment groups was determined. The results are shown below in Table 4 and are reported as percent (%) depletion of CCR2 expressing cells.

The nature of series [2]: Blood drug concentration analysis (LC-MS/MS) in In Vivo Depletion Assay. As to conditions: human CCR2 (hCCR2) knock-in, 057 background, mouse, whole blood, hCCR2 knock-in mice, IV 0.1 mpk compound + 10 mpk anti-cotinine antibody, 48 hours post-dose, read-out: Exposure of Compound of Formula (I) 48 hours post-dose. As for the experimental part:
as §1, §2
Collection of Blood for PK: Blood was collected at time points 0.25 hour, 2 hours, and […] following administration (50 μL/time point) through retro-orbital bleeding under mild isoflurane anesthesia.
as §3
Drug concentration in blood samples was determined by an LC-MS/MS-based bioanalytical method developed at Syngene. Samples were analyzed on Q-Trap, API-5500 LC-MS/MS system coupled with Exion UHPLC system from SCIEX, USA operated in multiple reaction monitoring mode employing electrospray ionization technique in positive polarity. Analyte and internal standard peaks were resolved on Synergi Polar, 75×2.0 mm, 4μ column using mobile phase 10 mM Ammonium acetate in Milli-Q water as phase A and 0.1% Formic acid in acetonitrile as Phase B. Gradient elution was performed with initial composition 95% Phase A at 0.0 min, holding it for 0.2 minutes, ramping to 5% by 1.0 minute, keeping the same for next 0.5 minutes and coming back to 95% by 1.6 minutes. The total run time was 2 minutes.
Working dilutions for calibration curve and quality control standards were prepared by serially diluting 20 mg/mL stock solution with DMSO. Spiked concentrations for calibration curve in the whole blood ranged from 1 ng/mL to 1000 ng/mL. The working solution of internal standard (Verapamil, 25 ng/mL) was prepared in acetonitrile. 10 μL of the study sample and calibration curve, quality control, and blank whole blood samples were aliquoted in 96 deep well plates for processing. 10 μL of Milli-Q water was added to all the samples and briefly vortexed to initiate complete hemolysis. 10 μL of 20 mM dithiothreitol (OTT) was added to all the samples and incubated for 30 minutes at 37° C. The addition of DTT enhanced the recovery of ARM compounds of Formula (I) from the biological matrix. 300 μL of working internal standard solution was added to all samples except total blank and wash samples, where 300 μL of acetonitrile was added. All the samples were vortex mixed for 5 minutes, followed by centrifugation at 4000 rpm for 10 minutes at 4° C. Supernatants were transferred to the loading plate and injected 3 μL to LC-MS/MS system for analysis. The results are shown below in Table 4 and are reported as compound exposure 48 hours post-dose

SMILES strings stand for the structures. Counter-ions that a name gives are not always drawn.

For the compound `CO[C@@H]1COCC[C@@H]1N[C@@H]1CC[C@](CCCCNC(=O)[C@H]2CC[C@H](NC(=O)CCCO[C@H]3CC[C@H](OCCNC(=O)[C@H]4CC(=O)N(C)[C@@H]4c4cccnc4)CC3)CC2)(C(=O)N2CCc3ncc(C(F)(F)F)cc3C2)C1` [Example 7, (2S,3S)-N-(2-(((1R,4S)-4-(4-(((1S,4R)-4-((4-((1S,3R)-3-(((3S,4S)-3-Methoxytetrahydro-2H-pyran-4-yl)amino)-1-(3-(trifluoromethyl)-5,6,7,8-tetrahydro-1,6-naphthyridine-6-carbonyl)cyclopentyl)butyl)carbamoyl)cyclohexyl)amino)-4-oxobutoxy)cyclohexyl)oxy)ethyl)-1-methyl-5-oxo-2-(pyridin-3-yl)pyrrolidine-3-carboxamide], in series [1], the “% Depletion of CCR2 expressing cells” value is 86.93%. In addition, in series [2], the concentration at 48 h came to 54.4 ng/mL.

`CO[C@@H]1COCC[C@@H]1N[C@@H]1CC[C@](CCCNC(=O)[C@H]2CC[C@H](NC(=O)CCCO[C@H]3CC[C@H](OCCNC(=O)[C@H]4CC(=O)N(C)[C@@H]4c4cccnc4)CC3)CC2)(C(=O)N2CCc3ncc(C(F)(F)F)cc3C2)C1` [Example 3, (2S,3S)-N-(2-(((1R,4S)-4-(4-(((1S,4R)-4-((3-((1S,3R)-3-(((3S,4S)-3-Methoxytetrahydro-2H-pyran-4-yl)amino)-1-(3-(trifluoromethyl)-5,6,7,8-tetrahydro-1,6-naphthyridine-6-carbonyl)cyclopentyl)propyl)carbamoyl)cyclohexyl)amino)-4-oxobutoxy)cyclohexyl)oxy)ethyl)-1-methyl-5-oxo-2-(pyridin-3-yl)pyrrolidine-3-carboxamide]: the “% Depletion of CCR2 expressing cells” value in series [1] was 98.4%. For the same compound, in series [2], the concentration at 48 h worked out at 31.3 ng/mL.

`CO[C@@H]1COCC[C@@H]1N[C@@H]1CC[C@](COCCNC(=O)[C@H]2CC[C@H](NC(=O)CCCO[C@H]3CC[C@H](OCCNC(=O)[C@H]4CC(=O)N(C)[C@@H]4c4cccnc4)CC3)CC2)(C(=O)N2CCc3ncc(C(F)(F)F)cc3C2)C1` [Example 11, (2S,3S)-N-(2-(((1R,4S)-4-(4-(((1S,4R)-4-((2-(((1S,3R)-3-(((3S,4S)-3-Methoxytetrahydro-2H-pyran-4-yl)amino)-1-(3-(trifluoromethyl)-5,6,7,8-tetrahydro-1,6-naphthyridine-6-carbonyl)cyclopentyl)methoxy)ethyl)carbamoyl)cyclohexyl)amino)-4-oxobutoxy)cyclohexyl)oxy)ethyl)-1-methyl-5-oxo-2-(pyridin-3-yl)pyrrolidine-3-carboxamide]: in series [1], the “% Depletion of CCR2 expressing cells” value amounted to 89.3%. For the same compound, the concentration at 48 h in series [2] came to 85.1 ng/mL.

Regarding `CO[C@@H]1COCC[C@@H]1N[C@@H]1CC[C@](CCCNC(=O)CCOCCOCCO[C@H]2CC[C@H](OCCNC(=O)[C@H]3CC(=O)N(C)[C@@H]3c3cccnc3)CC2)(C(=O)N2CCc3ncc(C(F)(F)F)cc3C2)C1` [Example 20, ((2S,3S)—N-(2-(((1r,4S)-4-(2-(2-(3-((3-((1S,3R)-3-(((3S,4S)-3-Methoxytetrahydro-2H-pyran-4-yl)amino)-1-(3-(trifluoromethyl)-5,6,7,8-tetrahydro-1,6-naphthyridine-6-carbonyl)cyclopentyl)propyl)amino)-3-oxopropoxy)ethoxy)ethoxy)cyclohexyl)oxy)ethyl)-1-methyl-5-oxo-2-(pyridin-3-yl)pyrrolidine-3-carboxamide, Formic acid salt], in series [1], the “% Depletion of CCR2 expressing cells” value stood at 87.3%. In series [2], the concentration at 48 h is 74.6 ng/mL.

With `CO[C@@H]1COCC[C@@H]1N[C@@H]1CC[C@](CCNC(=O)[C@H]2CC[C@H](NC(=O)CCCO[C@H]3CC[C@H](OCCNC(=O)[C@H]4CC(=O)N(C)[C@@H]4c4cccnc4)CC3)CC2)(C(=O)N2CCc3ncc(C(F)(F)F)cc3C2)C1` [Example 8, (2S,3S)-N-(2-(((1R,4S)-4-(4-(((1R,4R)-4-((2-((1R,3R)-3-(((3S,4S)-3-Methoxytetrahydro-2H-pyran-4-yl)amino)-1-(3-(trifluoromethyl)-5,6,7,8-tetrahydro-1,6-naphthyridine-6-carbonyl)cyclopentyl)ethyl)carbamoyl)cyclohexyl)amino)-4-oxobutoxy)cyclohexyl)oxy)ethyl)-1-methyl-5-oxo-2-(pyridin-3-yl)pyrrolidine-3-carboxamide], the “% Depletion of CCR2 expressing cells” value in series [1] is 99.22%. For the same compound, in series [2], the concentration at 48 h worked out at 74.9 ng/mL.

Regarding `CO[C@@H]1COCC[C@@H]1N[C@@H]1CC[C@](CCC2CCN(C(=O)[C@H]3CC[C@H](NC(=O)CCCO[C@H]4CC[C@H](OCCNC(=O)[C@H]5CC(=O)N(C)[C@@H]5c5cccnc5)CC4)CC3)CC2)(C(=O)N2CCc3ncc(C(F)(F)F)cc3C2)C1` [Example 2, (2S,3S)—N-(2-(((1R,4S)-4-(4-(((1S,4R)-4-(4-(2-((1S,3R)-3-(((3S,4S)-3-Methoxytetrahydro-2H-pyran-4-yl)amino)-1-(3-(trifluoromethyl)-5,6,7,8-tetrahydro-1,6-naphthyridine-6-carbonyl)cyclopentyl)ethyl)piperidine-1-carbonyl)cyclohexyl)amino)-4-oxobutoxy)cyclohexyl)oxy)ethyl)-1-methyl-5-oxo-2-(pyridin-3-yl)pyrrolidine-3-carboxamide], the “% Depletion of CCR2 expressing cells” value in series [1] was 97.7%. Moreover, the concentration at 48 h in series [2] came out at 53.2 ng/mL.

As to `CO[C@@H]1COCC[C@@H]1N[C@@H]1CC[C@@](C(=O)N2Cc3cc(C(F)(F)F)cnc3[C@H](NC(=O)[C@H]3CC[C@H](NC(=O)CCCO[C@H]4CC[C@H](OCCNC(=O)[C@H]5CC(=O)N(C)[C@@H]5c5cccnc5)CC4)CC3)C2)(C(C)C)C1` [Example 14, (2S,3S)-N-(2-(((1R,4S)-4-(4-(((1R,4R)-4-(((R)-6-((1S,3R)-1-isopropyl-3-(((3S,4S)-3-methoxytetrahydro-2H-pyran-4-yl)amino)cyclopentane-1-carbonyl)-3-(trifluoromethyl)-5,6,7,8-tetrahydro-1,6-naphthyridin-8-yl)carbamoyl)cyclohexyl)amino)-4-oxobutoxy)cyclohexyl)oxy)ethyl)-1-methyl-5-oxo-2-(pyridin-3-yl)pyrrolidine-3-carboxamide, 3Formic acid salt], the “% Depletion of CCR2 expressing cells” value in series [1] was 92.3%. Besides, the concentration at 48 h in series [2] was 41.4 ng/mL.
